Patent US20060069039A1, “Treatment of dyskinesia” (priority 2002, published 2006)
Structures can show the parent of a compound that is named as a salt.

Experiments:
[1] = cited from earlier work
essential tremor = settings: clinical trial; cited from earlier work
MPTP-lesioned marmosets = test: L-DOPA-induced dyskinesia and parkinsonian disability in the MPTP-lesioned marmoset model of Parkinson's disease; format: in vivo, marmosets (Callithrix jacchuis); settings: topiramate oral plus L-DOPA 15 mg/kg, n=6
Source text: The MPTP-lesioned primate represents the best animal model of Parkinson's disease and L-DOPA-induced dyskinesia, the most common form of dyskinesia encountered in the clinical situation. The pathology, symptomatology and response of symptoms to treatments and production of side effects following treatment are very similar in the MPTP-lesioned primate to those seen in Parkinson's disease patients. Thus, when untreated, MPTP-lesioned primates show parkinsonian symptoms such as reduced range of movement, reduced speed of movement (bradykinesia) and an abnormal, hunched, parkinsonian posture. […] A study was performed on six adult marmosets (Callithrix jacchuis) to assess the ability of topiramate to reduce dyskinesia, specifically L-DOPA-induced dyskinesia. The marmosets were rendered parkinsonian by subcutaneous injection of 2 mg/kg MPTP for 5 consecutive days. […] The degree of activity and disability before and after MPTP treatment were assessed using a combination of scales that measure locomotor activity, mobility, bradykinesia and posture (see below). […] Behavior was assessed for 6 hours post drug administration. […] Data were collected for each one hour time period for severity of dyskinesia and were analyzed with a Wilcoxon matched pairs test (the software used was Prism version 3.0, GraphPad Software Inc). […]

## CCN(CC)CCNC(=O)c1cc(Cl)c(N)cc1OC [Metoclopramide hydrochloride, 4-amino-5-chloro-N-[2-(diethylamino)ethyl]-2-methoxy benzamide monohydrochloride monohydrate]
[1]; water
  solubility in water: freely soluble

## CC1(C)O[C@@H]2[C@@H](CO[C@@]3(COS(N)(=O)=O)OC(C)(C)O[C@@H]23)O1 [Topiramate, 2,3:4,5-bis-O-(1-methylethylidene)-β-D-fructopyranose sulfamate]
[1]; alkaline solutions containing sodium hydroxide or sodium phosphate, pH of 9 to 10
  solubility in alkaline solutions: most soluble
[1]; organic solvents
  solubility in acetone, chloroform, dimethylsulfoxide and ethanol: freely soluble
[1]; saturated solution
  pH of saturated solution: 6.3
Essential tremor
  mean improvement in tremor: 25%
MPTP-lesioned marmosets; Wilcoxon P<0.05 at 0-1 h and 1-2 h, P>0.05 at 2-3 h
  dyskinesia following topiramate and L-DOPA in comparison to L-DOPA alone: less dyskinesia
MPTP-lesioned marmosets; Wilcoxon P>0.05
  effect on the anti-Parkinsonian action of L-DOPA (parkinsonian disability): without major effect
